Measured values as given in patent publication US20160311791A1, “NOVEL TRICYCLIC CALCIUM SENSING RECEPTOR ANTOGONISTS FOR THE TREATMENT OF OSTEOPOSOSIS” (MERCK SHARP & DOHME CORP., priority 2013, published 2016).

Test system: serum calcium
Assay: In vivo pharmacodynamic effects: total serum calcium (arsenazo III)
Conditions: rat, oral gavage
Protocol: Procedures for In Vivo Pharmacodynamic Effects
The objective of these studies was to assess the effect of compounds on stimulating PTH release and increasing calcium secretion in the rat. Male Sprague-Dawley rats (3-4 months old) were equipped with jugular vein cannulae (JVC) by surgical procedure. The rats were given the compound by oral gavage. Blood was sampled from the JVC at 15 minutes, 30 minutes, 60 minutes, 120 minutes, 240 minutes, 420 minutes, and 24 hrs post compound administration. Plasma was separated and used for a PTH ELISA assay and a calcium concentration assay. After the last blood sampling, the rats were sacrificed under anesthesia by inhalation of CO2. All procedures were conducted in compliance with the Animal Welfare Act, the Guide for the Care and Use of Laboratory Animals and the recommendations of the AVMA Panel on Euthanasia.
Rat plasma samples were used for measuring serum PTH levels: The Rat Intact PTH 1-84 ELISA kit (Immutopics Cat#60-2500) was used according to the manufacturer's instructions. Total serum calcium determination was made using a calcium arsenazo III reagent (Fisher Scientific Cat # Pointe Scientific Calcium (Arsenazo III) Reagents; Mfr. No.: C7529-500; Qty.: 500 mL. Mfr. No.: C7529-500, Part #23666172) according to the manufacturer's instructions. For these experiments, 2 μl of sample was added to 198 μl of reagent, mixed, and read at 650 nm.

For `C[C@@H](OC[C@H](O)CNC(C)(C)Cc1ccc2ccccc2c1)c1cccc2c1O[C@@H]1[C@@H](C(=O)O)[C@H]21` [Example 1-1], the “Maximum Increase in Calcium (mg/dl)” value (at 30 mpk) was 1.5 (at mg/dl.

In the case of `CSc1ccc(CC(C)(C)NC[C@@H](O)CO[C@H](C)c2ccc(C)c3c2C2[C@H](O3)[C@H]2C(=O)O)cc1F` (stereo partly drawn) [Example 8-24], the “Maximum Increase in Calcium (mg/dl)” value (at 30 mpk) is reported as 1 (at mg/dl.

`C[C@@H](OC[C@H](O)CNC(C)(C)Cc1ccc2ccccc2c1)c1cccc2c1[C@@H]1[C@H](O2)[C@H]1C(=O)O` [Example 5-1] was tested, and the “Maximum Increase in Calcium (mg/dl)” value (at 10 mpk) was 2.3 (at mg/dl.
